Laboratory results: ChEMBL document CHEMBL1130318, “Inhibition of stromelysin-1 (MMP-3) by P1'-biphenylylethyl carboxyalkyl dipeptides” (J Med Chem, 1997)

What was measured:
[1] = target: 72 kDa type IV collagenase (Homo sapiens, UniProt P08253)
Description: Inhibition of gelatinase A (Matrix metalloprotease-2)

Stromelysin-1 = Stromelysin-1 (Homo sapiens, UniProt P08254)
Description: Inhibition of human stromelysin-1 (Matrix metalloprotease-3)

Mus musculus = experiment: Effective dose for inhibition of MMP-3 mediated degradation of radiolabeled transferrin in the mouse pleural cavity (PLCAV) after 60 mpk oral dose of inhibitor.; assay type: functional
[2] = Clearance was measured in rat after administration of compound 20 mg/kg intravenously; assay type: ADME, organism-based; set-up: dose 20 mg/kg, route intravenous; conditions: in vivo, iv
[3] = Clearance was measured in mouse after administration of compound 20 mg/kg intravenously; assay type: ADME, organism-based; set-up: dose 20 mg/kg, route intravenous; conditions: in vivo, iv
[4] = Plasma half-life was measured in mouse after administration of compound 20 mg/kg intravenously; assay type: ADME, organism-based; set-up: dose 20 mg/kg, route intravenous; conditions: iv
[5] = Plasma half-life was measured in rabbit after administration of compound 12 mg/kg intravenously; conditions: iv
[6] = Plasma half-life was measured in rat after administration of compound 20 mg/kg intravenously; assay type: ADME, organism-based; set-up: dose 20 mg/kg, route intravenous; conditions: iv
[7] = Clearance was measured in rabbit after administration of compound 12 mg/kg intravenously; conditions: in vivo, iv
[8] = Volume distribution was measured in rabbit after administration of compound 12 mg/kg intravenously; conditions: in vivo, iv, read-out: Vdss
[9] = Volume distribution was measured in mouse after administration of compound 20 mg/kg intravenously; assay type: ADME, organism-based; set-up: dose 20 mg/kg, route intravenous; conditions: in vivo, iv, read-out: Vdss
[10] = Volume distribution was measured in rat after administration of compound 20 mg/kg intravenously; assay type: ADME, organism-based; set-up: dose 20 mg/kg, route intravenous; conditions: in vivo, iv, read-out: Vdss
[11] = Percent oral bioavailability was measured in rat after administration of compound 20 mg/kg perorally; assay type: ADME, organism-based; conditions: in vivo
[12] = Percent oral bioavailability was measured in mouse after administration of compound 20 mg/kg perorally; assay type: ADME, organism-based; conditions: in vivo

Stromelysin-1, sequence (P08254 whole entry): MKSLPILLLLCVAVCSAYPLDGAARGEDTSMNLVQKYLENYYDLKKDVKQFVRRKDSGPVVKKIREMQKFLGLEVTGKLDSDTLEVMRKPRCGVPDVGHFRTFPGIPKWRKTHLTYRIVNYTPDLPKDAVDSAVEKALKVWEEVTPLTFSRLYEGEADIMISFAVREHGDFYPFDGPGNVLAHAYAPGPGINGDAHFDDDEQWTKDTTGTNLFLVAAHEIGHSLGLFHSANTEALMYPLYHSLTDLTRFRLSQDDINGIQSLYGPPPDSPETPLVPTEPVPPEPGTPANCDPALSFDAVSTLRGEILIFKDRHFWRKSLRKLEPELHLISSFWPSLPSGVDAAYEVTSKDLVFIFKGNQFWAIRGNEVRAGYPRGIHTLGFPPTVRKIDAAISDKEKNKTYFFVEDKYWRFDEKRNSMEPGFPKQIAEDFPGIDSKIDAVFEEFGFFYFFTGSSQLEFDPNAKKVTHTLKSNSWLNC
72 kDa type IV collagenase, sequence (P08253 whole entry): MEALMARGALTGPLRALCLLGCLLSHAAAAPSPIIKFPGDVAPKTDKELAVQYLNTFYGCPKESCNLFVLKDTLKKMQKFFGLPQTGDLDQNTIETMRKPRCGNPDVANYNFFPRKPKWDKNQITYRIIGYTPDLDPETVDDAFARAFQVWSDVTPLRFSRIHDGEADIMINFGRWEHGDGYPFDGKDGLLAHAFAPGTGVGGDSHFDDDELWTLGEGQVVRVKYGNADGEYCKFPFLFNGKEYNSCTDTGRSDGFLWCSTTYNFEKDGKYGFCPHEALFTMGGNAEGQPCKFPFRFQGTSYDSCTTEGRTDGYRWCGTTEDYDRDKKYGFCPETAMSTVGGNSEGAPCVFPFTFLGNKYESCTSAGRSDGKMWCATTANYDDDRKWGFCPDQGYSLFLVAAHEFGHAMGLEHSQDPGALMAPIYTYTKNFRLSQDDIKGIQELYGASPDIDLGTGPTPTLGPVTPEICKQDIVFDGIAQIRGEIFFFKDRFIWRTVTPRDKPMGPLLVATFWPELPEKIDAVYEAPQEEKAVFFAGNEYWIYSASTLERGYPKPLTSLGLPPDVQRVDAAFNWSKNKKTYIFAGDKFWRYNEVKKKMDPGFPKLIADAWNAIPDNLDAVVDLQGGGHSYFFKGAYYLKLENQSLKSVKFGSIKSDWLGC

Compound: CCCC[C@@H](C[C@@H](CCc1ccc(-c2ccc(C(N)=O)cc2)cc1)C(=O)N[C@H](C(=O)NC)C(C)(C)C)C(=O)O
- Ki [1]: 38 nM
- Ki (Stromelysin-1): 24 nM

Compound: CCCC[C@@H](C[C@@H](CCc1ccc(-c2ccc(C(F)(F)F)cc2)cc1)C(=O)N[C@H](C(=O)NC)C(C)(C)C)C(=O)O
- Ki [1]: 39 nM
- Ki (Stromelysin-1): 37 nM

Compound: CCCC[C@@H](C[C@@H](CCc1ccc(-c2cccc(N)c2)cc1)C(=O)N[C@H](C(=O)Nc1ccccc1)C(C)(C)C)C(=O)O
- Ki [1]: 280 nM
- Ki (Stromelysin-1): 27 nM

Compound: CCCC[C@@H](C[C@@H](CCc1ccc(-c2cccc(C(F)(F)F)c2)cc1)C(=O)N[C@H](C(=O)NC)C(C)(C)C)C(=O)O
- Ki [1]: 3600 nM
- Ki (Stromelysin-1): 1100 nM

Compound: CCCC[C@@H](C[C@@H](CCc1ccc(-c2ccccc2S(N)(=O)=O)cc1)C(=O)N[C@H](C(=O)NC)C(C)(C)C)C(=O)O
- Ki (Stromelysin-1): 9400 nM

Compound: CCCC[C@@H](C[C@@H](CCc1ccc(-c2ccc(-c3ncc[nH]3)cc2)cc1)C(=O)N[C@H](C(=O)NC)C(C)(C)C)C(=O)O
- Ki [1]: 94 nM
- Ki (Stromelysin-1): 25 nM

Compound: CCCC[C@@H](C[C@@H](CCc1ccc(-c2c(C)cccc2C)cc1)C(=O)N[C@H](C(=O)NC)C(C)(C)C)C(=O)O
- Ki [1]: 1300 nM
- Ki (Stromelysin-1): 1200 nM

Compound: CCCc1ccc(CC[C@H](N[C@H](C)C(=O)O)C(=O)N[C@@H](CC(C)C)C(=O)Nc2ccccc2)cc1
- ED50 (Mus musculus): 65 mg/kg

Compound: CCCC[C@@H](C[C@@H](CCc1ccc(OCc2ccccc2)cc1)C(=O)N[C@H](C(=O)NC)C(C)(C)C)C(=O)O
- Ki [1]: 210 nM
- Ki (Stromelysin-1): 74 nM

Compound: CCCC[C@@H](C[C@@H](CCc1ccc(Cc2ccccc2)cc1)C(=O)N[C@H](C(=O)Nc1ccccc1)C(C)(C)C)C(=O)O
- Ki [1]: 16 nM
- Ki (Stromelysin-1): 1400 nM

Compound: CCCC[C@@H](C[C@@H](CCc1ccc(-c2ccc(F)c(Cl)c2)cc1)C(=O)N[C@H](C(=O)NC)C(C)(C)C)C(=O)O
- Ki [1]: 80 nM
- Ki (Stromelysin-1): 19 nM

Compound: CCCC[C@@H](C[C@@H](CCc1ccc(-c2ccc(C#N)cc2)cc1)C(=O)N[C@H](C(=O)NC)C(C)(C)C)C(=O)O
- Ki [1]: 14 nM
- Ki (Stromelysin-1): 9 nM

Compound: CCCC[C@@H](C[C@@H](CCc1ccc(CCC)cc1)C(=O)N[C@H](C(=O)NC)C(C)(C)C)C(=O)O
- Ki [1]: 47 nM
- Ki (Stromelysin-1): 140 nM

Compound: CCCC[C@@H](C[C@@H](CCc1ccc(-c2cc3ccccc3[nH]2)cc1)C(=O)N[C@H](C(=O)NC)C(C)(C)C)C(=O)O
- Ki [1]: 49 nM
- Ki (Stromelysin-1): 12 nM

Compound: CCCC[C@@H](C[C@@H](CCc1ccc(-c2cccc(F)c2)cc1)C(=O)N[C@H](C(=O)NC)C(C)(C)C)C(=O)O
- Ki [1]: 48 nM
- Ki (Stromelysin-1): 21 nM

Compound: CCCC[C@@H](C[C@@H](CCc1ccc(CCc2ccccc2)cc1)C(=O)N[C@H](C(=O)NC)C(C)(C)C)C(=O)O
- Ki [1]: 380 nM
- Ki (Stromelysin-1): 49 nM

Compound: CCCC[C@@H](C[C@@H](CCc1ccc(CCC)cc1)C(=O)N[C@H](C(=O)Nc1ccncc1)C(C)(C)C)C(=O)O
- Ki [1]: 22 nM
- Ki (Stromelysin-1): 11 nM

Compound: CC(C)C[C@H](NC(=O)[C@H](CCc1ccc(-c2ccccc2)cc1)C[C@H](C)C(=O)O)C(=O)Nc1ccccc1
- Ki (Stromelysin-1): 82 nM

Compound: CCCC[C@@H](C[C@@H](CCc1ccc(/C=C/c2ccccc2)cc1)C(=O)N[C@H](C(=O)NC)C(C)(C)C)C(=O)O
- Ki [1]: 760 nM
- Ki (Stromelysin-1): 65 nM

Compound: CCCC[C@@H](C[C@@H](CCc1ccc(C2CCCCCC2)cc1)C(=O)N[C@H](C(=O)NC)C(C)(C)C)C(=O)O
- Ki [1]: 1900 nM
- Ki (Stromelysin-1): 95 nM

Compound: CCCC[C@@H](C[C@@H](CCc1ccc(-c2ccc(C(=O)NC)cc2)cc1)C(=O)N[C@H](C(=O)NC)C(C)(C)C)C(=O)O
- Ki [1]: 34 nM
- Ki (Stromelysin-1): 49 nM

Compound: CCCC[C@@H](C[C@@H](CCc1ccc(-c2cc(Cl)cc(Cl)c2)cc1)C(=O)N[C@H](C(=O)NC)C(C)(C)C)C(=O)O
- Ki [1]: 1600 nM
- Ki (Stromelysin-1): 1500 nM

Compound: CCCC[C@@H](C[C@@H](CCc1ccc(-c2ccc(F)cc2)cc1)C(=O)N[C@H](C(=O)Nc1ccncc1)C(C)(C)C)C(=O)O
- Ki [1]: 25 nM
- Ki (Stromelysin-1): 2 nM

Compound: CCCC[C@@H](C[C@@H](CCc1ccc(-c2ccc(C=O)cc2)cc1)C(=O)N[C@H](C(=O)NC)C(C)(C)C)C(=O)O
- Ki [1]: 16 nM
- Ki (Stromelysin-1): 15 nM

Compound: CCCC[C@@H](C[C@@H](CCc1ccccc1)C(=O)N[C@H](C(=O)NC)C(C)(C)C)C(=O)O
- Ki [1]: 1500 nM
- Ki (Stromelysin-1): 3800 nM

Compound: CCCC[C@@H](C[C@@H](CCc1ccc(-c2ccc3ccccc3c2)cc1)C(=O)N[C@H](C(=O)NC)C(C)(C)C)C(=O)O
- Ki (Stromelysin-1): 120 nM

Compound: CCCC[C@@H](C[C@@H](CCc1cccc(-c2ccccc2)c1)C(=O)N[C@H](C(=O)NC)C(C)(C)C)C(=O)O
- Ki [1]: 2400 nM
- Ki (Stromelysin-1): 1500 nM

Compound: CCCC[C@@H](C[C@@H](CCc1ccc(-c2ccccc2S(=O)(=O)NC(C)(C)C)cc1)C(=O)N[C@H](C(=O)NC)C(C)(C)C)C(=O)O
- Ki [1]: 17 nM
- Ki (Stromelysin-1): 10 nM

Compound: CCCC[C@@H](C[C@@H](CCc1ccc(-c2ccc(Cl)cc2Cl)cc1)C(=O)N[C@H](C(=O)NC)C(C)(C)C)C(=O)O
- Ki [1]: 100 nM
- Ki (Stromelysin-1): 12 nM

Compound: CCCC[C@@H](C[C@@H](CCc1ccc(-c2ccc(F)cc2)cc1)C(=O)N[C@H](C(=O)Nc1ccccc1)C(C)(C)C)C(=O)O
- Ki [1]: 150 nM
- Ki (Stromelysin-1): 4 nM

Compound: CCCC[C@@H](C[C@@H](CCc1ccc(-c2ccc(C(=O)OC)cc2)cc1)C(=O)N[C@H](C(=O)NC)C(C)(C)C)C(=O)O
- Ki [1]: 32 nM
- Ki (Stromelysin-1): 31 nM

Compound: CCCC[C@@H](C[C@@H](CCc1cccc(-c2ccsc2)c1)C(=O)N[C@H](C(=O)NC)C(C)(C)C)C(=O)O
- Ki [1]: 21 nM
- Ki (Stromelysin-1): 15 nM

Compound: CC(C)C[C@H](NC(=O)[C@H](CCc1ccccc1)N[C@H](C)C(=O)O)C(=O)Nc1ccccc1 [L-696418]
- ED50 (Mus musculus): > 100 mg/kg

Compound: CCCC[C@@H](C[C@@H](CCc1ccc(-c2cccc3ccccc23)cc1)C(=O)N[C@H](C(=O)NC)C(C)(C)C)C(=O)O
- Ki [1]: 6900 nM
- Ki (Stromelysin-1): 2000 nM

Compound: CCCC[C@@H](C[C@@H](CCc1ccc(-c2ccc(Br)cc2)cc1)C(=O)N[C@H](C(=O)NC)C(C)(C)C)C(=O)O
- Ki [1]: 17 nM
- Ki (Stromelysin-1): 11 nM

Compound: CCCC[C@@H](C[C@@H](CCc1ccc(-c2ccc(OC)cc2)cc1)C(=O)N[C@H](C(=O)NC)C(C)(C)C)C(=O)O
- Ki [1]: 21 nM
- Ki (Stromelysin-1): 13 nM

Compound: CCCC[C@@H](C[C@@H](CCc1ccc(C2CCCO2)cc1)C(=O)N[C@H](C(=O)NC)C(C)(C)C)C(=O)O (some centres not stated)
- Ki [1]: 810 nM
- Ki (Stromelysin-1): 1400 nM

Compound: CCCC[C@@H](C[C@@H](CCc1ccc(-c2ccc(SC)cc2)cc1)C(=O)N[C@H](C(=O)NC)C(C)(C)C)C(=O)O
- Ki [1]: 13 nM
- Ki (Stromelysin-1): 5 nM

Compound: CCCC[C@@H](C[C@@H](CCc1ccc(-c2ccccc2F)cc1)C(=O)N[C@H](C(=O)NC)C(C)(C)C)C(=O)O
- Ki [1]: 61 nM
- Ki (Stromelysin-1): 11 nM

Compound: CCCC[C@@H](C[C@@H](CCc1ccc(-c2ccc(S(C)(=O)=O)cc2)cc1)C(=O)N[C@H](C(=O)NC)C(C)(C)C)C(=O)O
- Ki [1]: 19 nM
- Ki (Stromelysin-1): 21 nM

Compound: CCCC[C@@H](C[C@@H](CCc1ccc(-c2ccc([S+](C)[O-])cc2)cc1)C(=O)N[C@H](C(=O)NC)C(C)(C)C)C(=O)O (some centres not stated)
- Ki [1]: 30 nM
- Ki (Stromelysin-1): 52 nM

Compound: CCCC[C@@H](C[C@@H](CCc1ccc(-c2ccc(-c3ccccc3)cc2)cc1)C(=O)N[C@H](C(=O)NC)C(C)(C)C)C(=O)O
- Ki [1]: 84 nM
- Ki (Stromelysin-1): 39 nM

Compound: CCCC[C@@H](C[C@@H](CCc1ccc(-c2ccc(C(=O)N(C)C)cc2)cc1)C(=O)N[C@H](C(=O)NC)C(C)(C)C)C(=O)O
- Ki [1]: 50 nM
- Ki (Stromelysin-1): 40 nM

Compound: CCCC[C@@H](C[C@@H](CCc1ccc(-c2ccc(C(=O)O)cc2)cc1)C(=O)N[C@H](C(=O)NC)C(C)(C)C)C(=O)O
- Ki [1]: 580 nM
- Ki (Stromelysin-1): 690 nM

Compound: CCCC[C@@H](C[C@@H](CCc1ccc(-c2ccc(Cl)cc2)cc1)C(=O)N[C@H](C(=O)NC)C(C)(C)C)C(=O)O
- Ki [1]: 25 nM
- Ki (Stromelysin-1): 13 nM

Compound: CCCC[C@@H](C[C@@H](CCc1ccc(-c2ccc(F)cc2)cc1)C(=O)N[C@H](C(=O)NC)C(C)(C)C)C(=O)O
- clearance [2]: 1.3 mL/min/kg
- clearance [3]: 1.1 mL/min/kg
- half-life [4]: 2.7 h
- half-life [5]: 0.9 h
- half-life [6]: 4.4 h
- clearance [7]: 7.6 mL/min/kg
- Vd [8]: 0.2 L/kg
- Vd [9]: 0.2 L/kg
- Ki [1]: 17 nM
- Vd [10]: 0.32 L/kg
- Ki (Stromelysin-1): 10 nM
- bioavailability [11]: 60%
- bioavailability [12]: 78%

Compound: CCCc1ccc(CC[C@H](C[C@H](C)C(=O)O)C(=O)N[C@@H](CC(C)C)C(=O)Nc2ccccc2)cc1
- ED50 (Mus musculus): 32 mg/kg

Compound: CCCC[C@@H](C[C@@H](CCc1ccc(-c2ccc(-c3nnn[nH]3)cc2)cc1)C(=O)N[C@H](C(=O)NC)C(C)(C)C)C(=O)O
- Ki [1]: 1800 nM
- Ki (Stromelysin-1): 350 nM

Compound: CC(C)C[C@H](NC(=O)[C@H](CCc1ccc(-c2ccc(F)cc2)cc1)C[C@H](C)C(=O)O)C(=O)Nc1ccccc1
- Ki (Stromelysin-1): 38 nM
